Here are results for 16 compounds from patent US20050164951A1, “Inhibitors for the soluble epoxide hydrolase” (The Regents of the University of California, priority 2003, published 2005).

One assay deals with T1, mouse sEH (Mus musculus, UniProt P34914).
T1 construct: made in house; host or cells: baculovirus expression system
T1 sequence (P34914 1-554): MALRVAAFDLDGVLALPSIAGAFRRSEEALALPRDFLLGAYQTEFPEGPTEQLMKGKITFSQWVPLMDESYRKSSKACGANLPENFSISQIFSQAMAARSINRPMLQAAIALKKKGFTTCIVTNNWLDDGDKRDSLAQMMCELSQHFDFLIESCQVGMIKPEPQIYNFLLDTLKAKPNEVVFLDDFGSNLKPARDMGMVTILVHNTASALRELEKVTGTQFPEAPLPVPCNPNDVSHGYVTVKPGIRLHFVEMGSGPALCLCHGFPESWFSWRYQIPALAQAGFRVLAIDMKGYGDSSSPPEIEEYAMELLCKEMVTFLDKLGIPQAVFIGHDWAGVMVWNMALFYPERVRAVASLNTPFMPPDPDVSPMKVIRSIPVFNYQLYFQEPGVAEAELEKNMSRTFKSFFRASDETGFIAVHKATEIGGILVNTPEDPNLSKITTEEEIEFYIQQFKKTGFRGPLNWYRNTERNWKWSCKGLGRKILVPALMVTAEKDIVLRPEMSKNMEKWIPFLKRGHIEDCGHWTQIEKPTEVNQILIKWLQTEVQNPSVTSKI
Briefly: Inhibition of recombinant mouse sEH, IC50 assay with 4-nitrophenyl-trans-2,3-epoxy-3-phenylpropyl carbonate as substrate. It counts as biochemical. The procedure: (§1) Assays were performed in triplicate. […] The curve was generated from at least three separate runs, each in triplicate, to obtain the standard deviation (SD) given in Table 1 thru Table 4.

The target in another assay is T2, human sEH (Homo sapiens, UniProt P34913).
T2 construct: made in house; host or cells: baculovirus expression system
T2 sequence (P34913 1-555): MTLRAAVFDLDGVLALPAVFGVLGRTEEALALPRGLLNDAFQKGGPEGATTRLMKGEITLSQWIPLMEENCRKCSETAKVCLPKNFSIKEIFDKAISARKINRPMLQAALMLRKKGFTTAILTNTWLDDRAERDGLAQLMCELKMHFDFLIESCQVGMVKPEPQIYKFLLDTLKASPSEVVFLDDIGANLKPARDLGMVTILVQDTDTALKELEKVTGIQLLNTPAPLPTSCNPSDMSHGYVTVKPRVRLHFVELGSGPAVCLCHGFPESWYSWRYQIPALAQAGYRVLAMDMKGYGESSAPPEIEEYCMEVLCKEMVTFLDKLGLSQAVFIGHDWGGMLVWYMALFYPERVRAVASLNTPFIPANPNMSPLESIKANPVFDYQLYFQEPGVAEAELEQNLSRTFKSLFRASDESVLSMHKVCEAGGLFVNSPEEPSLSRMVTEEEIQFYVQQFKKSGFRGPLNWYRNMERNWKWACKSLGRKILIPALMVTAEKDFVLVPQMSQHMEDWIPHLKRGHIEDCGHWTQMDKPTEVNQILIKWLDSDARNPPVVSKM
Briefly: Inhibition of recombinant human sEH, IC50 assay with 4-nitrophenyl-trans-2,3-epoxy-3-phenylpropyl carbonate as substrate. It counts as biochemical. Conditions: for IC90: 0.24 μM enzyme. On the procedure:
as §1

Setting [1] is: Table 4, […] enzyme, 5 min preincubation, pH 7.4, 30° C., means ± SD, read-out: IC50 (μM) Human sEH.
[2] abbreviates: Table 5, 0.12 μM enzyme, 5 min preincubation, pH 7.4, 30° C., means ± SD.
Setting [3] is: Table 5, […] enzyme, 5 min preincubation, pH 7.4, 30° C., means ± SD, read-out: Mouse sEH IC50.
Where [4] appears, read: Table 5, 5 min preincubation, pH 7.4, 30° C., means ± SD.
[5] abbreviates: Table 5, […] enzyme, 5 min preincubation, pH 7.4, 30° C., means ± SD, read-out: Human sEH IC50.
The mark [6] stands for this setting: Table 9, established protocols, read-out: IC50 (μM) Mouse sEH.
[7] abbreviates: Table 9, established protocols, read-out: IC50 (μM) Human sEH.

Like-named read-outs stand apart in the source and are kept apart here.

As a reminder, the IC50 is the point on the concentration scale where inhibition reaches its midpoint. As a reminder, the IC90 is the concentration needed for an effect of 90%.

In the case of `CCCCCCCCCCNC(=O)NC1CCCCC1` [Compound 791, reference compound], the IC50 on mouse sEH (Table 2, […] enzyme, 5 min preincubation, pH 7.4, 30° C., means ± SD, read-out: IC50 (μM) Mouse sEH) amounted to 0.05 ± 0.01 µM; at human sEH (Table 2, […] enzyme, 5 min preincubation, pH 7.4, 30° C., means ± SD, read-out: IC50 (μM) Human sEH) it was 0.14 ± 0.01 µM.

With `CCNC(=O)CCCCCCCCCCCNC(=O)NC12CC3CC(CC(C3)C1)C2` [Compound 792, 1-(1-Adamantyl)-3-(11-ethylaminocarbonylundecyl)urea], the IC50 at mouse sEH (Table 4, […] enzyme, 5 min preincubation, pH 7.4, 30° C., means ± SD, read-out: IC50 (μM) Mouse sEH) is 0.05 ± 0.01 µM; on human sEH (setting [1]) it was 0.1 ± 0.01 µM.

Take `CCCCCCC(=O)CCCNC(=O)Nc1cccc(Cl)c1` [Compound 794, 1-(3-chlorophenyl)-3-(4-oxodecyl)urea]: the IC50 at mouse sEH (Table 3, […] enzyme, 5 min preincubation, pH 7.4, 30° C., means ± SD, read-out: IC50 (μM) Mouse sEH) came out at 0.41 ± 0.05 µM; at human sEH (Table 3, […] enzyme, 5 min preincubation, pH 7.4, 30° C., means ± SD, read-out: IC50 (μM) Human sEH), 2.1 ± 0.2 µM.

For `O=C(NCCCCCCCCCCCC(=O)OCc1ccccc1)NC12CC3CC(CC(C3)C1)C2` [Compound 804, 1-(1-Adamantyl)-3-(11-benzyloxycarbonylundecyl)urea], the IC50 came out at 0.07 ± 0.01 µM on mouse sEH (Table 4, 0.12 μM enzyme, 5 min preincubation, pH 7.4, 30° C., means ± SD, read-out: IC50 (μM) Mouse sEH) and 0.13 ± 0.01 µM on human sEH (setting [1]).

Turning to `CCCCCOC(=O)CCCCC(=O)NC12CC3CC(CC(C3)C1)C2` [Compound 834], the IC50 was determined as 0.34 ± 0.01 µM on mouse sEH (Table 8, established protocols, read-out: IC50 (μM) Mouse sEH) and 2.4 ± 0.2 µM on human sEH (Table 8, established protocols, read-out: IC50 (μM) Human sEH).

In the case of `COC(=O)CCCCNC(=O)NC1CCCCC1` [Compound 854], the IC50 at mouse sEH (Table 1, 0.12 μM enzyme, 5 min preincubation, pH 7.4, 30° C., [S] = 40 μM, means ± SD of three experiments, read-out: IC50 (μM) Mouse sEH) came out at 0.13 ± 0.03 µM; at human sEH (Table 1, […] enzyme, 5 min preincubation, pH 7.4, 30° C., [S] = 40 μM, means ± SD of three experiments, read-out: IC50 (μM) Human sEH) it was 5 ± 0.6 µM.

As to `CCOC(=O)COC(=O)CCCNC(=O)NC12CC3CC(CC(C3)C1)C2` [Compound 857], the figures for the IC90 on mouse sEH (setting [2]) and at human sEH (setting [4]) were 110 ± 10 nM and 9 ± 2 µM, respectively. In addition, the IC50 was 0.05 ± 0.01 µM on mouse sEH (setting [3]) and 0.39 ± 0.01 µM on human sEH (setting [5]).

Consider `CCOC(=O)CCCOC(=O)CCCNC(=O)NC12CC3CC(CC(C3)C1)C2` [Compound 858], for which the IC90 on mouse sEH (setting [2]) is 160 ± 10 nM; on human sEH (setting [4]) it was 5 ± 0.1 µM. Besides, the IC50 turned out to be 0.05 ± 0.01 µM at mouse sEH (setting [3]) and 0.12 ± 0.01 µM on human sEH (setting [5]).

As to `CCCCCOC(=O)c1cccc(NC(=O)NC23CC4CC(CC(C4)C2)C3)c1` [Compound 859], the IC50 was 0.05 ± 0.01 µM on mouse sEH (setting [6]) and 0.1 ± 0.01 µM on human sEH (setting [7]).

Regarding `CCCCCOC(=O)c1ccc(NC(=O)NC23CC4CC(CC(C4)C2)C3)cc1` [Compound 860], the IC50 is 0.05 ± 0.01 µM on mouse sEH (setting [6]) and 0.1 ± 0.01 µM at human sEH (setting [7]).

Regarding `CCCCCOC(=O)C1CCCC(NC(=O)NC23CC4CC(CC(C4)C2)C3)C1` (centres unmarked) [Compound 861], the IC50 at mouse sEH (setting [6]) is 0.05 ± 0.01 µM; on human sEH (read-out: IC50 (μM) Human sEH), 0.1 ± 0.01 µM.

As to `CCCCCOC(=O)C1CCC(NC(=O)NC23CC4CC(CC(C4)C2)C3)CC1` (centres unmarked) [Compound 863], the values for the IC50 at mouse sEH (setting [6]) and at human sEH (setting [7]) were 0.05 ± 0.01 µM and 0.12 ± 0.01 µM, respectively.

In the case of `CCOC(=O)CCOC(=O)CCCNC(=O)NC12CC3CC(CC(C3)C1)C2` [Compound 876], the IC90 on mouse sEH (setting [2]) stood at 630 ± 20 nM; on human sEH (setting [4]), 9 ± 2 µM. For the same compound, the IC50 at mouse sEH (setting [3]) came out at 0.05 ± 0.01 µM; at human sEH (setting [5]) it was 0.54 ± 0.05 µM.

With `CCOC(=O)CCCCOC(=O)CCCNC(=O)NC12CC3CC(CC(C3)C1)C2` [Compound 877], the figures for the IC90 on mouse sEH (setting [2]) and on human sEH (setting [4]) were 100 ± 10 nM and 1.5 ± 0.1 µM, respectively. In addition, the IC50 amounted to 0.05 ± 0.01 µM on mouse sEH (setting [3]) and 0.13 ± 0.01 µM at human sEH (setting [5]).

Regarding `CCOC(=O)CCCCCCOC(=O)CCCNC(=O)NC12CC3CC(CC(C3)C1)C2` [Compound 878], the figures for the IC90 at mouse sEH (setting [2]) and at human sEH (setting [4]) were 130 ± 10 nM and 0.81 ± 0.01 µM, respectively. Also, the values for the half-maximal inhibitory concentration (IC50) on mouse sEH (setting [3]) and on human sEH (setting [5]) were 0.05 ± 0.01 µM and 0.12 ± 0.01 µM, respectively.

`CCOC(=O)CCCCCCCOC(=O)CCCNC(=O)NC12CC3CC(CC(C3)C1)C2` [Compound 879]: the IC90 is 160 ± 20 nM at mouse sEH (setting [2]) and 0.72 ± 0.01 µM at human sEH (setting [4]). The IC50 at mouse sEH (setting [3]) was found to be 0.05 ± 0.01 µM; at human sEH (setting [5]) it was 0.11 ± 0.01 µM.
